This experiment concerns the target Solute carrier organic anion transporter family member 1C1. Kind of experiment: TP_TRANSPORTER: inhibition of L-T4 uptake in Oatp14-expressing HEK293 cells. The experiment is classed as functional, cell-based.
One may read the Ki as a measure of affinity in units of concentration, obtained from inhibition or displacement. The low end stands for higher affinity, the high end for lower affinity. Molecule `N[C@H](Cc1cc(I)c(Oc2cc(I)c(O)c(I)c2)c(I)c1)C(=O)O` [DEXTROTHYROXINE] gave a Ki of 0.27 µM. In turn, `C[C@]12CC[C@@H]3c4ccc(O)cc4CC[C@H]3[C@@H]1CC[C@@H]2O[C@@H]1O[C@H](C(=O)O)[C@@H](O)[C@H](O)[C@H]1O` [ESTRADIOL 17B GLUCURONIDE] had a Ki of over 100 µM. For `C[C@]12CC[C@@H]3c4ccc(OS(=O)(=O)O)cc4CC[C@H]3[C@@H]1CCC2=O` [ESTRONE SULFURIC ACID], the Ki was found to be 53.1 µM. Consider `N[C@@H](Cc1cc(I)c(Oc2ccc(O)c(I)c2)c(I)c1)C(=O)O` [LIOTHYRONINE], for which the affinity corresponds to a Ki of 24.2 µM. The result for `CCCN(CCC)S(=O)(=O)c1ccc(C(=O)O)cc1` [PROBENECID] reads 293 µM. Regarding `N[C@@H](Cc1ccc(Oc2cc(I)c(O)c(I)c2)c(I)c1)C(=O)O` [REVERSE TRIIODOTHYRONINE], the Ki was determined as 0.91 µM. In the case of `O=C(O)Cc1cc(I)c(Oc2ccc(O)c(I)c2)c(I)c1` [TIRATRICOL], the affinity corresponds to a Ki of 2.15 µM.

Source of the values: ChEMBL document CHEMBL2074312, “Involvement of multispecific organic anion transporter, Oatp14 (Slc21a14), in the transport of thyroxine across the blood-brain barrier” (Endocrinology, 2004).
